Measured values reported in publication PMC10893631, “Receptor-based pharmacophore modeling, molecular docking, synthesis and biological evaluation of novel VEGFR-2, FGFR-1, and BRAF multi-kinase inhibitors” (BMC Chemistry, 2024).

Tests used:
Experiment in all cases: NCI SRB growth inhibition (single dose 10 µM / five-dose)
Type in all cases: cell-based, human
SW-620 = details: Homo sapiens; for inhibition at 10 µM: SW-620 (Colon cancer), read-out: GI%; for GI50: SW-620, Colon cancer, five-dose
Procedure, shortened: (§1)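 After a 24 h pre-incubation, cells received drug at five serially diluted concentrations; two untreated plates per line were TCA-fixed at drug addition as Tz. Adherent plates were fixed with cold TCA, stained with SRB and washed with 1% acetic acid.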

HS 578 T = details: Homo sapiens; for inhibition at 10 µM: HS 578 T (Breast cancer), read-out: GI%; for GI50: HS 578 T, Breast cancer, five-dose
Procedure, shortened: as §1

HCT-116 = details: Homo sapiens, HCT-116; for inhibition at 10 µM: read-out: GI%
Procedure, shortened: as §1

CAKI-1 = details: Homo sapiens; for inhibition at 10 µM: CAKI-1 (Renal cancer), read-out: GI%; for GI50: CAKI-1, Renal cancer, five-dose
Procedure, shortened: as §1

MDA-MB-435 = details: Homo sapiens; for inhibition at 10 µM: MDA-MB-435 (Melanoma), read-out: GI%; for GI50: MDA-MB-435, Melanoma, five-dose
Procedure, shortened: as §1

A549/ATCC = details: Homo sapiens; for inhibition at 10 µM: A549/ATCC (Non-small cell lung cancer), read-out: GI%; for GI50: A549/ATCC, Non-small cell lung cancer, five-dose
Procedure, shortened: as §1

HCT-15 = details: Homo sapiens; for inhibition at 10 µM: HCT-15 (Colon cancer), read-out: GI%; for GI50: HCT-15, Colon cancer, five-dose
Procedure, shortened: as §1

ACHN = details: Homo sapiens; for inhibition at 10 µM: ACHN (Renal cancer), read-out: GI%; for GI50: ACHN, Renal cancer, five-dose
Procedure, shortened: as §1

HOP-62 = details: Homo sapiens; for inhibition at 10 µM: HOP-62 (Non-small cell lung cancer), read-out: GI%; for GI50: HOP-62, Non-small cell lung cancer, five-dose
Procedure, shortened: as §1

MALME-3 M = details: Homo sapiens; for inhibition at 10 µM: MALME-3 M (Melanoma), read-out: GI%; for GI50: MALME-3 M, Melanoma, five-dose
Procedure, shortened: as §1

TK-10 = details: Homo sapiens; for inhibition at 10 µM: TK-10 (Renal cancer), read-out: GI%; for GI50: TK-10, Renal cancer, five-dose
Procedure, shortened: as §1

OVCAR-5 = details: Homo sapiens; for inhibition at 10 µM: OVCAR-5 (Ovarian cancer), read-out: GI%; for GI50: OVCAR-5, Ovarian cancer, five-dose
Procedure, shortened: as §1

HCC-2998 = details: Homo sapiens; for inhibition at 10 µM: HCC-2998 (Colon cancer), read-out: GI%; for GI50: HCC-2998, Colon cancer, five-dose
Procedure, shortened: as §1

NCI-H460 = details: Homo sapiens; for inhibition at 10 µM: NCI-H460 (Non-small cell lung cancer), read-out: GI%; for GI50: NCI-H460, Non-small cell lung cancer, five-dose
Procedure, shortened: as §1

SR = details: Homo sapiens; for inhibition at 10 µM: SR (Leukemia), read-out: GI%; for GI50: SR, Leukemia, five-dose
Procedure, shortened: as §1

OVCAR-8 = details: Homo sapiens; for inhibition at 10 µM: OVCAR-8 (Ovarian cancer), read-out: GI%; for GI50: OVCAR-8, Ovarian cancer, five-dose
Procedure, shortened: as §1

A498 = details: Homo sapiens; for inhibition at 10 µM: A498 (Renal cancer), read-out: GI%; for GI50: A498, Renal cancer, five-dose
Procedure, shortened: as §1

SNB-19 = details: Homo sapiens; for inhibition at 10 µM: SNB-19 (CNS cancer), read-out: GI%; for GI50: SNB-19, CNS cancer, five-dose
Procedure, shortened: as §1

MDA-MB-468 = details: Homo sapiens; for inhibition at 10 µM: MDA-MB-468 (Breast cancer), read-out: GI%; for GI50: MDA-MB-468, Breast cancer, five-dose
Procedure, shortened: as §1

MCF7 = details: Homo sapiens; for inhibition at 10 µM: MCF7 (Breast cancer), read-out: GI%; for GI50: MCF7, Breast cancer, five-dose
Procedure, shortened: as §1

T-47D = details: Homo sapiens, T47D; for inhibition at 10 µM: T-47D (Breast cancer), read-out: GI%; for GI50: T-47D, Breast cancer, five-dose
Procedure, shortened: as §1

EKVX = details: Homo sapiens; for inhibition at 10 µM: EKVX (Non-small cell lung cancer), read-out: GI%; for GI50: EKVX, Non-small cell lung cancer, five-dose
Procedure, shortened: as §1

MOLT-4 = details: Homo sapiens; for inhibition at 10 µM: MOLT-4 (Leukemia), read-out: GI%; for GI50: MOLT-4, Leukemia, five-dose
Procedure, shortened: as §1

COLO 205 = details: Homo sapiens; for inhibition at 10 µM: COLO 205 (Colon cancer), read-out: GI%; for GI50: COLO 205, Colon cancer, five-dose
Procedure, shortened: as §1

## COc1cccc(C=NNC(=O)c2ccc3[nH]c(-c4ccc(Cl)cc4)nc3c2)c1 [8q, 2-(4-Chlorophenyl)-N'-(3-methoxybenzylidene)-1H-benzo[d]imidazole-5-carbohydrazide]
SW-620
  inhibition at 10 µM: > 100%
  GI50: 2930 nM
HS 578 T
  inhibition at 10 µM: > 100%
  GI50: 2710 nM
HCT-116
  GI50: 3060 nM
  inhibition at 10 µM: > 100%
CAKI-1
  inhibition at 10 µM: > 100%
  GI50: 3840 nM
MDA-MB-435
  inhibition at 10 µM: 98.9%
  GI50: 3900 nM
A549/ATCC
  inhibition at 10 µM: > 100%
  GI50: 3220 nM
HCT-15
  inhibition at 10 µM: 63%
  GI50: 5520 nM
ACHN
  inhibition at 10 µM: > 100%
  GI50: 4210 nM
HOP-62
  inhibition at 10 µM: > 100%
  GI50: 1920 nM
MALME-3 M
  inhibition at 10 µM: > 100%
  GI50: 1540 nM
TK-10
  inhibition at 10 µM: > 100%
  GI50: 23900 nM
OVCAR-5
  inhibition at 10 µM: > 100%
  GI50: 5350 nM
HCC-2998
  inhibition at 10 µM: 79.6%
  GI50: 4420 nM
NCI-H460
  inhibition at 10 µM: > 100%
  GI50: 3340 nM
SR
  inhibition at 10 µM: > 100%
  GI50: 4150 nM
OVCAR-8
  inhibition at 10 µM: > 100%
  GI50: 2690 nM
A498
  inhibition at 10 µM: > 100%
  GI50: 15300 nM
SNB-19
  inhibition at 10 µM: > 100%
  GI50: 2170 nM
MDA-MB-468
  inhibition at 10 µM: > 100%
  GI50: 2970 nM
MCF7
  inhibition at 10 µM: > 100%
  GI50: 2570 nM
T-47D
  inhibition at 10 µM: > 100%
  GI50: 1950 nM
EKVX
  inhibition at 10 µM: > 100%
  GI50: 3520 nM
MOLT-4
  inhibition at 10 µM: 71.6%
  GI50: 5960 nM
COLO 205
  inhibition at 10 µM: > 100%
  GI50: 4020 nM

## COc1cccc(C=NNC(=O)c2ccc3[nH]c(-c4ccc(Cl)cc4)nc3c2)c1O [8r, 2-(4-Chlorophenyl)-N'-(2-hydroxy-3-methoxybenzylidene)-1H-benzo[d]imidazole-5-carbohydrazide]
SW-620
  inhibition at 10 µM: > 100%
  GI50: 1320 nM
HS 578 T
  inhibition at 10 µM: > 100%
  GI50: 700 nM
HCT-116
  GI50: 1190 nM
  inhibition at 10 µM: > 100%
CAKI-1
  inhibition at 10 µM: > 100%
  GI50: 2310 nM
MDA-MB-435
  inhibition at 10 µM: > 100%
  GI50: 1810 nM
A549/ATCC
  inhibition at 10 µM: > 100%
  GI50: 3680 nM
HCT-15
  inhibition at 10 µM: 95.2%
  GI50: 2720 nM
ACHN
  inhibition at 10 µM: > 100%
  GI50: 2920 nM
HOP-62
  inhibition at 10 µM: > 100%
  GI50: 1040 nM
MALME-3 M
  inhibition at 10 µM: > 100%
  GI50: 1360 nM
TK-10
  inhibition at 10 µM: > 100%
  GI50: 6460 nM
OVCAR-5
  inhibition at 10 µM: > 100%
  GI50: 2170 nM
HCC-2998
  inhibition at 10 µM: > 100%
  GI50: 1480 nM
NCI-H460
  inhibition at 10 µM: > 100%
  GI50: 1350 nM
SR
  inhibition at 10 µM: > 100%
  GI50: 500 nM
OVCAR-8
  inhibition at 10 µM: > 100%
  GI50: 1580 nM
A498
  inhibition at 10 µM: > 100%
  GI50: 12100 nM
SNB-19
  inhibition at 10 µM: > 100%
  GI50: 1310 nM
MDA-MB-468
  inhibition at 10 µM: > 100%
  GI50: 1440 nM
MCF7
  inhibition at 10 µM: > 100%
  GI50: 660 nM
T-47D
  inhibition at 10 µM: > 100%
  GI50: 600 nM
EKVX
  inhibition at 10 µM: > 100%
  GI50: 4560 nM
MOLT-4
  inhibition at 10 µM: > 100%
  GI50: 630 nM
COLO 205
  inhibition at 10 µM: > 100%
  GI50: 2330 nM
